In patent US20260108546A1 (ELI LILLY AND COMPANY, priority 2024, published 2026):

Target: T1, hGIP-R (Homo sapiens, UniProt P48546)
T1 construct: expressed in transfected cells; host or cells: HEK-293 clonal cell lines
T1 sequence (P48546 22-466): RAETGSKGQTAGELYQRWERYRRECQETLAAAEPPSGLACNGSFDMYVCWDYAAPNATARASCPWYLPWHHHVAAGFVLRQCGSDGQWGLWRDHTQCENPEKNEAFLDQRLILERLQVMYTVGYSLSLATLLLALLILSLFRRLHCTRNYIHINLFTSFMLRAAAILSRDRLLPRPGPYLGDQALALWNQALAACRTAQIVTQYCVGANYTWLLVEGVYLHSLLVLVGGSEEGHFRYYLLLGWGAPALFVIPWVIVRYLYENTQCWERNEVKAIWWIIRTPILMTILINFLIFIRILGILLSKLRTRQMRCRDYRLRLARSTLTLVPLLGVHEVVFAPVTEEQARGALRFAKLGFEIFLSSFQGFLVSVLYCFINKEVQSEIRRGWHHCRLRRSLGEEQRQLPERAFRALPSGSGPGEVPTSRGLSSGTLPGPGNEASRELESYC
Test: Functional hGIP-R Assay (cAMP formation, HTRF)
Format: cell-based
Conditions: for Emax: cAMP efficacy, percent of maximal response to GIP(1-42)OH, 37° C., 0.1% bovine casein, arithmetic mean ± SEM; for EC50: cAMP potency, HEK-293 cells expressing hGIP-R, incubated at 37° C. in the presence of 0.1% bovine casein, geometric mean, read-out: Human GIP-R EC50, nM (SEM, n)
Procedure, shortened: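 Relative EC50 and Emax came from four-parameter logistic fits of cAMP as a percent of the human GIP (1-42) OH maximal response. The cAMP was measured by competitive HTRF after 30 min, 37 °C compound exposure of hGIP-R HEK-293 clones in IBMX (250 μM)-containing medium.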

SMILES	Emax	EC50
Cc1cn2cc(-c3ccc([C@H]4C[C@@]45CCN([C@H](Cc4cnn(C(F)F)c4)C(=O)NC(C)(C)Cn4nc(C(F)(F)F)cc4-c4ccc(=O)[nH]n4)C5=O)c(Cl)c3)cnc2n1 [Example 148, (R)-2-((1S,3R)-1-(2-Chloro-4-(2-methylimidazo[1,2-a]pyrimidin-6-yl)phenyl)-4-oxo-5-azaspiro[2.4]heptan-5-yl)-3-(1-(difluoromethyl)-1H-pyrazol-4-yl)-N-(2-methyl-1-(5-(6-oxo-1,6-dihydropyridazin-3-yl)-3-(trifluoromethyl)-1H-pyrazol-1-yl)propan-2-yl)propanamide]	74.4 ± 2.94%	1.13 nM
Cc1ncc(-c2cc(C(F)(F)F)nn2CC(C)(C)NC(=O)[C@@H](Cc2cnn(C(F)F)c2)NC(=O)[C@H]2C[C@@H]2c2ccc(-c3cnc4nn(C)cc4c3)nc2C(F)(F)F)cn1 [Example 147, (1S,2S)-N—((R)-3-(1-(Difluoromethyl)-1H-pyrazol-4-yl)-1-((2-methyl-1-(5-(2-methylpyrimidin-5-yl)-3-(trifluoromethyl)-1H-pyrazol-1-yl)propan-2-yl)amino)-1-oxopropan-2-yl)-2-(6-(2-methyl-2H-pyrazolo[3,4-b]pyridin-5-yl)-2-(trifluoromethyl)pyridin-3-yl)cyclopropane-1-carboxamide]	86.1 ± 9%	17.2 nM
Cn1cc2cc(-c3ccc([C@H]4C[C@@]45CCN([C@H](Cc4cnn(C(F)F)c4)C(=O)NC(C)(C)Cn4nc(C(F)(F)F)cc4-c4cccn(CC(N)=O)c4=O)C5=O)cc3)cnc2n1 [Example 126, (R)-N-(1-(5-(1-(2-Amino-2-oxoethyl)-2-oxo-1,2-dihydropyridin-3-yl)-3-(trifluoromethyl)-1H-pyrazol-1-yl)-2-methylpropan-2-yl)-3-(1-(difluoromethyl)-1H-pyrazol-4-yl)-2-((1R,3R)-1-(4-(2-methyl-2H-pyrazolo[3,4-b]pyridin-5-yl)phenyl)-4-oxo-5-azaspiro[2.4]heptan-5-yl)propanamide]	93.6 ± 1.06%	42.3 nM
Cc1cn2cc(-c3ccc([C@H]4C[C@@]45CCN([C@H](Cc4cnn(C(F)F)c4)C(=O)NC(C)(C)Cn4nc(C(F)(F)F)cc4-c4cc(F)c(=O)n(C)c4)C5=O)c(C)c3)cnc2n1 [Example 144, (R)-3-(1-(Difluoromethyl)-1H-pyrazol-4-yl)-N-(1-(5-(5-fluoro-1-methyl-6-oxo-1,6-dihydropyridin-3-yl)-3-(trifluoromethyl)-1H-pyrazol-1-yl)-2-methylpropan-2-yl)-2-((1R,3R)-1-(2-methyl-4-(2-methylimidazo[1,2-a]pyrimidin-6-yl)phenyl)-4-oxo-5-azaspiro[2.4]heptan-5-yl)propanamide]	63.3 ± 2.24%	0.755 nM
Cc1cn2cc(-c3ccc([C@H]4C[C@@]45CCN([C@H](Cc4cnn(C(F)F)c4)C(=O)NC(C)(C)Cn4nc(C(F)(F)F)cc4-c4ccc(=O)[nH]n4)C5=O)c(F)c3)cnc2n1 [Example 149, (R)-3-(1-(Difluoromethyl)-1H-pyrazol-4-yl)-2-((1S,3R)-1-(2-fluoro-4-(2-methylimidazo[1,2-a]pyrimidin-6-yl)phenyl)-4-oxo-5-azaspiro[2.4]heptan-5-yl)-N-(2-methyl-1-(5-(6-oxo-1,6-dihydropyridazin-3-yl)-3-(trifluoromethyl)-1H-pyrazol-1-yl)propan-2-yl)propanamide]	73.2 ± 2.43%	5.57 nM
Cc1cn2cc(-c3ccc([C@H]4C[C@@]45CCN([C@H](Cc4cnn(C(F)F)c4)C(=O)NC(C)(C)Cn4nc(C(F)(F)F)cc4-c4ccc(=O)n(COP(=O)(O)O)n4)C5=O)c(F)c3)cnc2n1 [Example 151, (3-(1-(2-((R)-3-(1-(Difluoromethyl)-1H-pyrazol-4-yl)-2-((1S,3R)-1-(2-fluoro-4-(2-methylimidazo[1,2-a]pyrimidin-6-yl)phenyl)-4-oxo-5-azaspiro[2.4]heptan-5-yl)propanamido)-2-methylpropyl)-3-(trifluoromethyl)-1H-pyrazol-5-yl)-6-oxopyridazin-1 (6H)-yl)methyl dihydrogen phosphate]	106 ± 2.17%	16.9 nM
Cn1cc2cc(-c3ccc([C@H]4C[C@@]45CCN([C@H](Cc4cnn(C(F)F)c4)C(=O)NC(C)(C)Cn4nc(C(F)(F)F)cc4P(C)(C)=O)C5=O)c(Cl)c3)cnc2n1 [Example 163, (R)-2-((1S,3R)-1-(2-chloro-4-(2-methyl-2H-pyrazolo[3,4-b]pyridin-5-yl)phenyl)-4-oxo-5-azaspiro[2.4]heptan-5-yl)-3-(1-(difluoro-methyl)-1H-pyrazol-4-yl)-N-(1-(5-(dimethyl-phosphoryl)-3-(trifluoro-methyl)-1H-pyrazol-1-yl)-2-methylpropan-2-yl)propanamide]	109%	3.95 nM
COc1cc2cc(-c3ccc([C@H]4C[C@@]45CCN([C@H](Cc4cnn(C(F)F)c4)C(=O)NC(C)(C)Cn4nc(C(F)(F)F)cc4-c4ccc(=O)n(C)c4)C5=O)cc3)cnc2nc1C (single isomer, unassigned; isomer 1) [Example 105]	8.43 ± 1.23%	49.8 nM
Cn1cc(C[C@@H](NC(=O)[C@H]2C[C@@H]2c2ccc(NC(=O)Nc3ccc(F)cc3)cc2)C(=O)NC(C)(C)Cc2ccc(F)cc2)cn1 [Example 97, (1S,2S)-N—((R)-1-((1-(4-Fluorophenyl)-2-methylpropan-2-yl)amino)-3-(1-methyl-1H-pyrazol-4-yl)-1-oxopropan-2-yl)-2-(4-(3-(4-fluorophenyl)ureido)phenyl)cyclopropane-1-carboxamide]	96.6 ± 4.57%	38.6 nM
CC(C)(Cc1ccc(F)cc1)NC(=O)[C@@H](Cc1cnc2ncccn12)NC(=O)[C@H]1C[C@@H]1c1ccc(-c2cnc3nc(C(F)(F)F)cn3c2)cc1 [Example 86, (1S,2S)-N-((R)-1-((1-(4-Fuorophenyl)-2-methylpropan-2-yl)amino)-3-(imidazo[1,2-a]pyrimidin-3-yl)-1-oxopropan-2-yl)-2-(4-(2-(trifluoromethyl)imidazo[1,2-a]pyrimidin-6-yl)phenyl)cyclopropane-1-carboxamide]	71.1 ± 2.32%	10.2 nM
CC(C)(Cn1nc(C(F)(F)F)cc1C1CC1)NC(=O)[C@@H](Cc1cnc2ncccn12)NC(=O)[C@H]1C[C@@H]1c1ccc(NC(=O)C2CC(F)(F)C2)cc1 [Example 40, N-(4-((1S,2S)-2-(((R)-1-((1-(5-cyclopropyl-3-(trifluoromethyl)-1H-pyrazol-1-yl)-2-methylpropan-2-yl)amino)-3-(imidazo[1,2-a]pyrimidin-3-yl)-1-oxopropan-2-yl)carbamoyl)cyclopropyl)phenyl)-3,3-difluorocyclobutane-1-carboxamide]	60.7 ± 0.306%	3.55 nM
CN1CC(n2cc3cc(-c4ccc([C@H]5C[C@@]56CCN([C@H](Cc5cnn(C(F)F)c5)C(=O)NC(C)(C)Cn5nc(C(F)(F)F)cc5-c5cc(F)c(=O)n(C)c5)C6=O)c(F)c4)cnc3n2)C1 (single isomer, unassigned; isomer 1) [Example 106]	77.3 ± 7.69%	36.3 nM
Cc1cn2cc(-c3ccc(C4CC45CCN([C@H](Cc4cnn(C(F)F)c4)C(=O)NC(C)(C)Cn4nc(C(F)(F)F)cc4-c4cnc(C)nc4)C5=O)c(C)n3)cnc2n1 (single isomer, unassigned; isomer 1) [Example 110]	50.8 ± 1.54%	4.34 nM
[2H]C([2H])([2H])n1cc(C[C@H](C(=O)NC(C)(C)Cn2nc(C(F)(F)F)cc2-c2ccc(C(C)(C)O)nc2)N2CC[C@@]3(C[C@@H]3c3ccc(-c4cnc5nc(C6CC6)cn5c4)nc3C)C2=O)cn1 [Example 185, (R)-2-((1R,3R)-1-(6-(2-cyclopropylimidazo[1,2-a]pyrimidin-6-yl)-2-methylpyridin-3-yl)-4-oxo-5-azaspiro[2.4]heptan-5-yl)-N-(1-(5-(6-(2-hydroxypropan-2-yl)pyridin-3-yl)-3-(trifluoromethyl)-1H-pyrazol-1-yl)-2-methylpropan-2-yl)-3-(1-(methyl-d3)-1H-pyrazol-4-yl)propanamide]	115 ± 5.3%	0.402 nM
Cc1nc(-c2cnc3nn(C4CC4)cc3c2)ccc1[C@H]1C[C@@]12CCN([C@H](Cc1cnn(C(F)F)c1)C(=O)NC(C)(C)Cn1nc(C(F)(F)F)cc1-c1ccn(C3CC3)c(=O)c1)C2=O [Example 169, (R)—N-(1-(5-(1-cyclopropyl-2-oxo-1,2-dihydropyridin-4-yl)-3-(trifluoromethyl)-1H-pyrazol-1-yl)-2-methylpropan-2-yl)-2-((1R,3R)-1-(6-(2-cyclopropyl-2H-pyrazolo[3,4-b]pyridin-5-yl)-2-methylpyridin-3-yl)-4-oxo-5-azaspiro[2.4]heptan-5-yl)-3-(1-(difluoromethyl)-1H-pyrazol-4-yl)propanamide]	58.9 ± 1.86%	1.15 nM
CC(C)(Cn1cc(C(F)(F)F)cn1)NC(=O)[C@@H](Cc1cnc2ncccn12)NC(=O)[C@H]1C[C@@H]1c1ccc(NC(=O)C2CC(F)(F)C2)cc1 [Example 46, 3,3-Difluoro-N-(4-((1S,2S)-2-(((R)-3-(imidazo[1,2-a]pyrimidin-3-yl)-1-((2-methyl-1-(4-(trifluoromethyl)-1H-pyrazol-1-yl)propan-2-yl)amino)-1-oxopropan-2-yl)carbamoyl)cyclopropyl)phenyl) cyclobutane-1-carboxamide]	66.4 ± 2.06%	77.9 nM
